Results published in ChEMBL document CHEMBL1153245, “A profile of the in vitro anti-tumor activity of imidazolium-based ionic liquids” (2010).

Tested on: EKVX
Assay: Anticancer activity against human EKVX cells assessed cell growth at 10 uM after 48 hrs by sulforhodamine B assay relative to control
Format: functional

Cn1cc[n+](Cc2ccccc2)c1.F[P-](F)(F)(F)(F)F
Activity: 102.53%

Cn1cc[n+](CCO)c1.O=S(=O)([N-]S(=O)(=O)C(F)(F)F)C(F)(F)F
Activity: 100.51%
